Experimental data as given in patent US20190177284A1, “TETRAZOLYL-CONTAINING CYCLOPROPANECARBOXAMIDES” (Bayer Pharma Aktiengesellschaft, priority 2017, published 2019).

Key:
[1] = cited from earlier work
[2] = cited from earlier work; remark: listed apart in the source
[3] = cited from earlier work; remark: listed apart in the source
[4] = biological target: T1, human Bradykinin B1 receptor (Homo sapiens, UniProt P46663); assay: Calcium flux Assay (FLIPR) with cells expressing human Bradykinin B1 receptor (hB1); format: cell-based; conditions: absence of 0.1% BSA in assay buffer; CHO-K1 cell line expressing human B1 receptor; agonist Lys-(Des-Arg)-Bradykinin; read-out: hB1 free IC50
T1 construct: host or cells: CHO-K1
T1 sequence (P46663 1-353): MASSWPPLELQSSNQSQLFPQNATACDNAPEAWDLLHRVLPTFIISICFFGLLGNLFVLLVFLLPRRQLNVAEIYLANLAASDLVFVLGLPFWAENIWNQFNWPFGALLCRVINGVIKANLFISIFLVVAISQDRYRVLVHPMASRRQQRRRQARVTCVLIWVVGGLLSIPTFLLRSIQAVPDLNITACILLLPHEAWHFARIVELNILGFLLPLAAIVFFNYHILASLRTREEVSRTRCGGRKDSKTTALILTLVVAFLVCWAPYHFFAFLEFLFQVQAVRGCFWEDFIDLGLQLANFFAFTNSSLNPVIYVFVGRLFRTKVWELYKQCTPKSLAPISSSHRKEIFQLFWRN

[5] = due to metabolic liability; cited from earlier work

Structure (SMILES) | IC50 [4] | further results
C[C@@H]1CC[C@H](C)N1C(=O)c1ccc([C@@H](C)NC(=O)C2(NC(=O)c3cc(F)cc(C(F)(F)F)c3)CC2)c(F)c1 | – | human metabolic stability [1]: poor; pharmacokinetic profile in rat [2]: reasonable; aqueous solubility [3]: reasonable
Cc1ccc(NC(=O)c2ccc(NC(=O)C3(c4ccc(C(F)(F)F)cc4F)CC3)cc2-c2nnn[nH]2)nc1 [Example 56, 4-[({1-[2-Fluoro-4-(trifluoromethyl)phenyl]cyclopropyl}carbonyl)amino]-N-(5-methylpyridin-2-yl)-2-(1H-tetrazol-5-yl)benzamide] | 50 nM | –
Cc1ccc(NC(=O)c2ccc(NC(=O)C3(c4ccc(C(F)(F)F)cc4F)CC3)cc2-c2nnn[nH]2)cn1 [Example 57, 4-[({1-[2-Fluoro-4-(trifluoromethyl)phenyl]cyclopropyl}carbonyl)amino]-N-(6-methylpyridin-3-yl)-2-(1H-tetrazol-5-yl)benzamide] | 29 nM | –
CCOC(=O)c1c(F)cc(NC(=O)C2(c3ccc(C(F)(F)F)cc3F)CC2)cc1-c1nnn[nH]1 [Example 59, Ethyl 2-fluoro-4-[({1-[2-fluoro-4-(trifluoromethyl)phenyl]cyclopropyl}-carbonyl)amino]-6-(1H-tetrazol-5-yl)benzoate] | 5 nM | –
CCOC(=O)c1c(C)cc(NC(=O)C2(c3ccc(C(F)(F)F)cc3F)CC2)cc1-c1nnn[nH]1 [Example 60, Ethyl 4-[({1-[2-fluoro-4-(trifluoromethyl)phenyl]cyclopropyl}carbonyl)amino]-2-methyl-6-(1H-tetrazol-5-yl)benzoate] | 26 nM | –
O=C(OC1CCCC1)c1c(F)cc(NC(=O)C2(c3ccc(C(F)(F)F)cc3F)CC2)cc1-c1nnn[nH]1 [Example 61, Cyclopentyl 2-fluoro-4-[({1-[2-fluoro-4-(trifluoromethyl)phenyl]cyclopropyl}-carbonyl)amino]-6-(1H-tetrazol-5-yl)benzoate] | 2 nM | –
O=C(O[C@H]1CCOC1)c1c(F)cc(NC(=O)C2(c3ccc(C(F)(F)F)cc3F)CC2)cc1-c1nnn[nH]1 [Example 62, (3S)-tetrahydrofuran-3-yl 2-fluoro-4-[({1-[2-fluoro-4-(trifluoromethyl)phenyl]cyclopropyl}carbonyl)amino]-6-(1H-tetrazol-5-yl)benzoate] | 2 nM | –
Cc1ccc(NC(=O)c2c(F)cc(NC(=O)C3(c4ccc(C(F)(F)F)cc4F)CC3)cc2-c2nnn[nH]2)nc1 [Example 63, 2-Fluoro-4-[({1-[2-fluoro-4-(trifluoromethyl)phenyl]cyclopropyl}carbonyl)amino]-N-(5-methylpyridin-2-yl)-6-(1H-tetrazol-5-yl)benzamide] | 51 nM | –
Cc1cc(NC(=O)C2(c3ccc(C(F)(F)F)cc3F)CC2)cc(-c2nnn[nH]2)c1C(=O)OC1CCCC1 [Example 64, Cyclopentyl 4-[({1-[2-fluoro-4-(trifluoromethyl)phenyl]cyclopropyl}carbonyl)amino]-2-methyl-6-(1H-tetrazol-5-yl)benzoate] | 25 nM | –
Cc1cc(NC(=O)C2(c3ccc(C(F)(F)F)cc3F)CC2)cc(-c2nnn[nH]2)c1C(=O)O[C@H]1CCOC1 [Example 65, (3S)-tetrahydrofuran-3-yl 4-[({1-[2-fluoro-4-(trifluoromethyl)phenyl]cyclopropyl}carbonyl)amino]-2-methyl-6-(1H-tetrazol-5-yl)benzoate] | 62 nM | –
Cc1ccc(NC(=O)c2c(C)cc(NC(=O)C3(c4ccc(C(F)(F)F)cc4F)CC3)cc2-c2nnn[nH]2)nc1 [Example 66, 4-[({1-[2-fluroo-4-(trifluoromethyl)phenyl]cyclopropyl}carbonyl)amino]-2-methyl-N-(5-methylpyridin-2-yl)-6-(1H-tetrazol-5-yl)benzamide] | 1450 nM | –
C[C@@H](NC(=O)C1(NC(=O)C(F)(F)F)CC1)c1ccc(-c2cccc(Cl)c2C(=O)O)cc1F [MK-0686] | – | pharmacokinetic profile [5]: suboptimal
